The test deals with T1, EHMT2 (Homo sapiens, UniProt Q96KQ7).
T1 construct: host or cells: MDA-MB-231
T1 sequence (Q96KQ7 1-1210): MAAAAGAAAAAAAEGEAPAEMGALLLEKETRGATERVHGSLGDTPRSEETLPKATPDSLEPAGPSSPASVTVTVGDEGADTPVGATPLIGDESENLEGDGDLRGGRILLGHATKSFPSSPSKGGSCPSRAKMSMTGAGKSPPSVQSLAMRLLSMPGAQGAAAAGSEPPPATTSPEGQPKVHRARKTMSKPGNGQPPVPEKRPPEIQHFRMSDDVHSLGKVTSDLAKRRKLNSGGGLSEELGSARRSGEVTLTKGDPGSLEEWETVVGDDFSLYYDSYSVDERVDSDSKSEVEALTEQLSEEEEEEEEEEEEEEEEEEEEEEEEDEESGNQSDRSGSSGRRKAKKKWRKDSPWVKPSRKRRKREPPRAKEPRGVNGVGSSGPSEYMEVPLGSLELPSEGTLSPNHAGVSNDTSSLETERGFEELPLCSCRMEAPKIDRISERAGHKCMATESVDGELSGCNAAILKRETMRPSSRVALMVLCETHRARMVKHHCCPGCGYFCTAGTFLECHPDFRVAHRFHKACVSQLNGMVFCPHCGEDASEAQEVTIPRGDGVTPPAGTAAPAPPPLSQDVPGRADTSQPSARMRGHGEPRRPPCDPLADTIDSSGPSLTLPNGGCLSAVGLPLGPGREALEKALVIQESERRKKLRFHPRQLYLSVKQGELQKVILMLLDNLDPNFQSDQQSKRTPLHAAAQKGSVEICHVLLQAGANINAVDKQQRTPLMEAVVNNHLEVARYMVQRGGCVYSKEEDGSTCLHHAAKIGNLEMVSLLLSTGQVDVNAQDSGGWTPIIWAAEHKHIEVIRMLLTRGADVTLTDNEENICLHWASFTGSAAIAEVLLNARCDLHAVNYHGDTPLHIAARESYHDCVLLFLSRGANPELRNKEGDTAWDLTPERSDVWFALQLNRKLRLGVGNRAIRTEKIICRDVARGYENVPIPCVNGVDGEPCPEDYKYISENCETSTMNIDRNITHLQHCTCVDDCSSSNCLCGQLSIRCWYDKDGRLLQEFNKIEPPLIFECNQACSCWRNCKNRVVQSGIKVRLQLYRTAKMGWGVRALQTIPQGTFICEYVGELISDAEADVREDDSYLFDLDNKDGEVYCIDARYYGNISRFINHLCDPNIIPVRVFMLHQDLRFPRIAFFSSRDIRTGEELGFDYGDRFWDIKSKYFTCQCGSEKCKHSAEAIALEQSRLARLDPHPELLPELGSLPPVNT
Description: MDA-MB-231 H3K9me2 in-cell Western assay (EHMT2 ICW). It is filed as cell-based. To be noted: Table VI; read-out: EHMT2 ICW IC50. Put shortly: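 MDA-MB-231 cells (3,000/well) were exposed to compound for 30 min at room temperature and then 48 h at 37 °C, fixed with paraformaldehyde, and stained with anti-H3K9me2 (800 nm) plus DRAQ5 (700 nm). Per-well channel ratios gave percent inhibition, and IC50 came from a four-parameter fit of triplicate wells.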

In general, IC50 refers to the concentration that inhibits the measured activity by half. For the molecule `COc1cc(NC2CCNCC2)ncc1OCC1CCN(C)C1` (centres unmarked) [Compound 604], the IC50 is > 10 µM.
Regarding `COc1nc(NC2CCNCC2)ncc1OCC1CCN(C)C1` (centres unmarked) [Compound 605], the IC50 is > 10 µM.
As to `CCN1CC(COc2cc(Nc3nc(C)cc4[nH]ncc34)ncc2OC)C1` [Compound 607], the IC50 fell in the range of 1 to 10 µM.
The value for `CNc1cc(C)nc(Nc2cc(OCCCN3CCCC3)n3cnnc3c2)n1` [Compound 628] was > 10 µM.
As for `COc1cc(NC2CCNCC2)ncc1OCC1CCNC1` (centres unmarked) [Compound 629], the IC50 was > 10 µM.
For the molecule `CCc1nc(NC2CCNCC2)ncc1OCC1CCN(C)C1` (centres unmarked) [Compound 630], the IC50 was > 10 µM.
The result for `CCc1nc(NC2CCNCC2)ncc1OCC1CN(C(C)C)C1` [Compound 631] reads > 10 µM.
The result for `CN1CCC(Nc2ncc(OCC3CCN(C)C3)cn2)CC1` (centres unmarked) [Compound 632] reads > 10 µM; that for `CN1CCC(COc2cnc(N(C)C3CCNCC3)nc2)C1` (centres unmarked) [Compound 633], > 10 µM; that for `COc1cc(N(C)C2CCNCC2)ncc1OCC1CCN(C)C1` (centres unmarked) [Compound 634], > 10 µM.
In the case of `COc1cc(N(C)C2CCNCC2)ncc1OCC1CCN(C)C1` (centres unmarked) [Compound 635], the IC50 was > 10 µM.
With `CC(C)N1CC(COc2cnc(NC3CCNCC3)nc2)C1` [Compound 636], the half-inhibitory concentration (IC50) is > 10 µM.
Regarding `CC(C)N1CC[C@@H](COc2cnc(N(C)C3CCNCC3)nc2)C1` [Compound 637], the IC50 is > 10 µM.
The result for `COc1cnc(Nc2cccn3cncc23)cc1OCCCN1CCCC1` [Compound 638] reads > 10 µM.
Consider `COc1cnc(NC(=O)/C=C/CN(C)C)cc1OCCCN1CCCC1` [Compound 640], for which the IC50 is > 10 µM.
For `CNc1cc(C)nc(Nc2cnc(OC)c(OC[C@@H]3CCNC3)c2)n1` [Compound 641], the half-inhibitory concentration (IC50) fell in the range of 0.1 to 1 µM.
`COc1cc(Nc2ccc3[nH]ncc3c2)ncc1OCCCN1CCCC1` [Compound 643]: the IC50 was > 10 µM.
`CNc1cc(C)nc(Nc2ccc(OC)c(CNCCN3CCCC3)c2)n1` [Compound 644, 2-N-[4-methoxy-3-([[2-(pyrrolidin-1-yl)ethyl]amino]methyl)phenyl]-4-N,6-dimethylpyrimidine-2,4-diamine]: the IC50 lay in the range of 0.1 to 1 µM.
The result for `CNc1cc(C)nc(Nc2ccc(OC)c(CN(C)CCN3CCCC3)c2)n1` [Compound 645] reads 1 to 10 µM; that for `CCN1CCC(NCc2cc(Nc3nc(C)cc(NC)n3)ccc2OC)C1` (centres unmarked) [Compound 646], 1 to 10 µM.
Take `CCN1CC(NCc2cc(Nc3nc(C)cc(NC)n3)ccc2OC)C1` [Compound 647]: the IC50 was > 10 µM.
In the case of `COc1cc(Nc2ccc3[nH]ncc3n2)ncc1OCCCN1CCCC1` [Compound 648], the IC50 was > 10 µM.
The value for `CCN1CC([C@H](C)Oc2cc(Nc3nc(C)cc(NC)n3)ccc2OC)C1` [Compound 649] was 0.1 to 1 µM; that for `CCN1CC(N(C)Cc2cc(Nc3nc(C)cc(NC)n3)ccc2OC)C1` [Compound 650] was > 10 µM; that for `CCN1CCC(N(C)Cc2cc(Nc3nc(C)cc(NC)n3)ccc2OC)C1` (centres unmarked) [Compound 651] was > 10 µM.
`COc1cc2c(C3CCN(C)CC3)c(F)c(C)nc2cc1OCCCN1CCCC1` [Compound 652]: the IC50 was 1 to 10 µM.
Turning to `COc1cnc(Nc2cccc3nccn23)nc1OCCCN1CCCC1` [Compound 654], the IC50 was > 10 µM.
In the case of `COc1cnc(Nc2cccc3[nH]ncc23)nc1OCCCN1CCCC1` [Compound 655], the IC50 is > 10 µM.
For the molecule `COc1cnc(Nc2cccc3nncn23)nc1OCCCN1CCCC1` [Compound 656], the IC50 is > 10 µM.
Turning to `COc1cc2c(C3CCN(C)CC3)nc(C)nc2cc1OCCCN1CCCC1` [Compound 658], the IC50 is > 10 µM.
As for `COc1cc2c(C3CCN(C(C)C)CC3)nc(C)nc2cc1OCCCN1CCCC1` [Compound 659], the IC50 is > 10 µM.
The value for `CCN1CC(COc2cc3nc(C)cc(C4CCN(C)CC4)c3cc2OC)C1` [Compound 660] was 1 to 10 µM.
Turning to `CCN1CC(COc2cc3nc(C)cc(C4CCN(C(C)C)CC4)c3cc2OC)C1` [Compound 661], the IC50 lay within 1 to 10 µM.
In the case of `CCN1CC[C@@H](COc2cc3nc(C)cc(C4CCN(C)CC4)c3cc2OC)C1` [Compound 662], the IC50 lay within 0.1 to 1 µM.
Regarding `CCN1CC[C@@H](COc2cc3nc(C)cc(C4CCN(C(C)C)CC4)c3cc2OC)C1` [Compound 663], the IC50 fell in the range of 0.1 to 1 µM.
As to `CCN1CC(COc2cc3nc(C)nc(C4CCN(C)CC4)c3cc2OC)C1` [Compound 664], the IC50 is > 10 µM.
`CCN1CC(COc2cc3nc(C)nc(C4CCN(C(C)C)CC4)c3cc2OC)C1` [Compound 665]: the IC50 was > 10 µM.
With `CCN1CC[C@@H](COc2cc(Nc3nc(C)cc(NCC4CCOCC4)n3)ccc2OC)C1` [Compound 667], the IC50 was in the range of 0.1 to 1 µM.
Consider `COc1cc2c(C3CCOCC3)cc(C)nc2cc1OCCCN1CCCC1` [Compound 668], for which the IC50 was 0.1 to 1 µM.
The result for `COc1cc2c(C3CCN(C(C)C)CC3)cc(C)nc2nc1OCCCN1CCCC1` [Compound 670] reads > 10 µM; that for `CCc1cc(NC)nc(Nc2ccc(OC)c(OC[C@@H]3CCN(CC)C3)c2)n1` [Compound 671], 0.1 to 1 µM; that for `CCN1CC[C@@H](COc2cc(Nc3nc(NC)cc(C(C)C)n3)ccc2OC)C1` [Compound 672], 0.1 to 1 µM.
For the molecule `CCN1CC[C@@H](COc2cc3nc(C)nc(C4CCN(C)CC4)c3cc2OC)C1` [Compound 673], the IC50 is > 10 µM.
With `CCN1CC[C@@H](COc2cc3nc(C)nc(C4CCN(C(C)C)CC4)c3cc2OC)C1` [Compound 674], the IC50 was > 10 µM.
The result for `CNc1cc(C)nc(Nc2cnc(OC)c(O)c2)n1` [Compound 676] reads > 10 µM; that for `COc1cc2c(C3CCN(C)CC3)cc(-c3cn[nH]c3)nc2cc1OCCCN1CCCC1` [Compound 677], > 10 µM.
In the case of `COc1cc2c(C3CCN(C)CC3)cc(-c3cc[nH]n3)nc2cc1OCCCN1CCCC1` [Compound 678], the IC50 was in the range of 1 to 10 µM.
For the molecule `COc1cc2c(C3CCOCC3)cc(-c3cn[nH]c3)nc2cc1OCCCN1CCCC1` [Compound 679], the IC50 was in the range of 1 to 10 µM.
The value for `CNCCN(C)Cc1cc(Nc2nc(C)cc(NC)n2)ccc1OC` [Compound 680] was > 10 µM; that for `COc1cc2c(C3CCN(C)CC3)nc(-c3cn[nH]c3)nc2cc1OCCCN1CCCC1` [Compound 681] was 1 to 10 µM; that for `COCCN1CCC(c2cc(C)nc3cc(OCCCN4CCCC4)c(OC)cc23)CC1` [Compound 682] was 0.1 to 1 µM.
On to `COc1cnc(Nc2ccc3[nH]nnc3c2)cc1OCCCN1CCCC1` [Compound 686], for which the IC50 was > 10 µM.
Consider `CCN1CC([C@@H](C)Oc2cc(Nc3nc(C)cc(NC)n3)ccc2OC)C1` [Compound 687], for which the IC50 was 1 to 10 µM.
Take `CNc1cc(C)c2cc(OC)c(OCCCN3CCCC3)cc2n1` [Compound 736]: the IC50 is < 0.1 µM.
For `CNc1nc(C)c2cc(OC)c(OCCCN3CCCC3)cc2n1` [Compound 737], the concentration for half-maximal inhibition (IC50) was > 10 µM.
With `COc1cc2c(C)cc(N3CCNCC3)nc2cc1OCCCN1CCCC1` [Compound 738], the IC50 fell in the range of 1 to 10 µM.
For the molecule `COc1cc2c(C)nc(N3CCNCC3)nc2cc1OCCCN1CCCC1` [Compound 739], the IC50 is > 10 µM.
Take `CNc1nc(C2CCN(CCOC)CC2)c2cc(OC)c(OCCCN3CCCC3)cc2n1` [Compound 740]: the IC50 was in the range of 1 to 10 µM.
Turning to `COc1cc2c(C3CCN(C)CC3)cc(C)nc2cc1OCCCN1CC[C@H](F)C1` [Compound 741], the IC50 was in the range of 1 to 10 µM.
The value for `COc1cc2c(C3CCN(C)CC3)cc(C)nc2cc1OCCCN1CC[C@@H](F)C1` [Compound 742] was 1 to 10 µM; that for `COc1cc2c(C3CCCN(C)C3)nc(C)nc2cc1OCCCN1CCCC1` (centres unmarked) [Compound 743] was > 10 µM; that for `COc1cc2c(C3CCN(C)C3)nc(C)nc2cc1OCCCN1CCCC1` (centres unmarked) [Compound 745] was > 10 µM.
The result for `CNc1nc(C2CCCN(C)C2)c2cc(OC)c(OCCCN3CCCC3)cc2n1` (centres unmarked) [Compound 746] reads > 10 µM; that for `CNc1ccnc(Nc2ccc(OC)c(CNC[C@@H]3CCCN3)c2)n1` [Compound 1019], > 10 µM.
`CNc1ccnc(Nc2ccc(OC)c(CNC[C@H]3CCCN3)c2)n1` [Compound 1020]: the 50% inhibitory concentration (IC50) is > 10 µM.

For the origin of these results see patent publication US20210198277A1, “AMINE-SUBSTITUTED ARYL OR HETEROARYL COMPOUNDS” (Epizyme, Inc., priority 2016, published 2021).
